Laboratory results from US12070505B2, “Targeted peptide-drug conjugates” (priority 2021, dated 2024).

Experiments:
MDA-231WT cells = assay: LC50 by CCK-8 assay, wild-type cells; assay type: cell-based; conditions: MDA-231WT (wild type); FIG. 10: after 72 h
Description: Dox-resistant Cell Lines. Acquired resistance to Dox was induced in wild-type triple-negative breast cancer cell line MDA-MB-231 (MDA-231WT) as described before (Aliabadi, H. M.; et al. J. Control. Release 172:219-228, 2013, which is incorporated herein by reference). Briefly, MDA-231WT cells were exposed to Dox at an initial concentration of 0.05 μg/mL for one week or three consecutive expansions (whichever came later). […] Resistance induction was confirmed via calculation of LC50 following a sigmoidal effect model explained elsewhere (Bousoik, E.; et al. Front. Oncol. 9:1070, 2019, which is incorporated herein by reference) and determination of P-glycoprotein (P-gp) expression.
The cytotoxicity of the peptide-Dox conjugate in resistant triple-negative breast cancer and uterine sarcoma cell lines (MDA-231R, MDA-231WT, and MES-SA/MX2) was evaluated by a Cell Counting 8 (CCK8) KIT. The peptide-Dox conjugate was added to the cells in triplicate with different concentrations (0-40 μM). Cells were incubated at 37° C. and 5% CO2 for 24 h. After this incubation period, 10 μL of CCK8 reagent was added to each well, and plates were incubated at the same conditions for 2 h. The absorbance of each well was determined at 450 nm using the SpectraMAX M5 microplate reader. After subtracting the signal from blank wells that contain medium without cells in the plate with CCK-8 solution added, the results were normalized to cells treated with normal saline (considered as 100%)
Efficiency in Dox-Resistant Cells. In order to compare the cytotoxic effect of free and peptide-conjugated Dox in Dox-resistant cells, MDA-231WT (as a Dox-sensitive cell line as control) and MDA-231R and MES-SA/MX2 cells as Dox-resistant cells were exposed to a wide range of Dox (or Dox-equivalent for the peptide-conjugated drug) concentrations (0.05-40 μM). Cells were seeded in 96-well plates with approximately 50% confluency and were incubated for 24 h in 37° C. and 5% CO2. […] The cell viability was determined after this incubation period using the CCK-8 assay, as explained above. […]

CCRF-CEM cells = assay: Cytotoxicity, MTS cell viability assay, CCRF-CEM; conditions: 5 μM
Description: (§1) In Vitro Cytotoxicity Assay of Peptide-Drug Conjugates. […] In brief, CCRF-CEM cells were seeded at 50,000 cells in 0.1 mL per well in 98-well plates. In the case of other cell lines, the cells were seeded at 5,000 cells (0.1 mL per well in 96-well plates). […] Dox (5 μM) was used as a positive control, while water and cell culture medium were used as negative controls. The compounds were dissolved in water; water was used as a negative control to normalize the data. After the incubation period, MTS reagent (20 μL) was added to each well. The incubation was continued for 2 h. Cell viability was then determined by determination of the fluorescence intensity at 490 nm using a SpectraMax M2 microplate spectrophotometer. The percentage of cell viability was then calculated using the following equation: [(OD value of cells treated with the compound)−(OD value of culture medium)]/[(OD value of control cells)−(OD value of culture medium)]×100% (FIGS. 6-9).

[1] = test system: gastric adenocarcinoma cells (AGS); assay: Cytotoxicity, MTS cell viability assay, AGS; conditions: 5 μM
Description: as §1

COc1cccc2c1C(=O)c1c(O)c3c(c(O)c1C2=O)C[C@@](O)(C(=O)CO)C[C@@H]3O[C@H]1C[C@H](N)[C@H](O)[C@H](C)O1 [Dox, doxorubicin, reference compound]
CC50 (MDA-231WT cells): 450 nM
Cell Viability (%) after 24 h (CCRF-CEM cells): 48 ± 2%
Cell Viability (%) after 72 h (CCRF-CEM cells): 15 ± 3%
reduction of cell survival/viability (CCRF-CEM cells; 24 h): 52%
reduction of cell survival/viability (CCRF-CEM cells; 72 h): 85%
Cell Viability (%) after 24 h [1]: 54 ± 2%
Cell Viability (%) after 72 h [1]: 13 ± 3%
reduction of cell survival ([1]; 24 h): 46%
reduction of cell survival/viability ([1]; 72 h): 87%
